{"source": "patent US20210163357A1", "about": "“Composition comprising at least one microorganism and use thereof” (Evonik Operations GmbH, priority 2018, published 2021)", "assay_type_in_all_cases": "cell-based", "key": {"[1]": {"tested_on": "Bacillus subtilis DSM 32315", "assay": "Compatibility of spores with additives on agar plates", "conditions": "neopentyl glycol 7 g/L, Protectosil WS405 20 g/L", "protocol": "For spores of the strain Bacillus subtilis DSM 32315 compatibility with neopentyl glycol (7 g/L) and Protectosil® WS405 (20 g/L) was investigated on agar plates. A mixture of 3 g of meat extract, 5 g of peptone from casein and 1000 mL of distilled water adjusted to pH 7 using HCl/NaOH was used as medium."}, "[2]": {"tested_on": "Bacillus subtilis (DSM 10)", "assay": "Compatibility of microorganisms with hydrophobizing agent and shrinkage reducer, liquid culture, turbidity", "conditions": "WS405 5, 20 or 30 g/L; neopentyl glycol 0.7, 7 or 14 g/L; 4 days, 30° C.", "protocol": "(§1) The strains Bacillus subtilis (DSM 10) and Bacillus pseudofirmus (DSM 8715) were investigated for compatibility with hydrophobizing agents and shrinkage reducers.\n(§2) A mixture of 3 g of meat extract, 5 g of peptone from casein and 1000 mL of distilled water adjusted to pH 7 using HCl/NaOH for Bacillus subtilis (DSM 10) and adjusted to pH 7 using Na sesquicarbonate for Bacillus pseudofirmus (DSM 8715) was used as the medium.\n(§3) A pre-culture was initially produced for each of the two strains: To this end, an inoculation dose of the spores was in each case placed into a culture tube with 8 mL of the respective medium and left overnight in a laboratory shaker at 30° C. and 200 revolutions per minute. Furthermore, aqueous stock solutions respectively having a concentration of Protectosil® WS405 (hydrophobizing agent) of 500 g/L and a concentration of neopentyl glycol (shrinkage reducer) of 280 g/L were produced.\n(§4) For the main cultures two 6-well spot plates were each filled with 8 mL of medium. Then, 10 μL of the first pre-culture were added to each well of the first plate and 10 μL of the second pre-culture were added to each well of the second plate. […]"}, "[3]": {"tested_on": "Bacillus pseudofirmus (DSM 8715)", "assay": "Compatibility of microorganisms with hydrophobizing agent and shrinkage reducer, liquid culture, turbidity", "conditions": "WS405 5, 20 or 30 g/L; neopentyl glycol 0.7, 7 or 14 g/L; 4 days, 30° C.", "protocol": "as §1, §2, §3, §4"}}, "data": [{"smiles": "CC(C)(CO)CO", "note": "[neopentyl glycol]", "values": [{"measurement": "formation of colonies in presence of additive", "setting": "[1]", "result": "Formation of colonies was observed in all cases"}, {"measurement": "growth of microorganism in presence of additive (turbidity)", "setting": "[2]", "result": "growth of neither organism was impaired"}, {"measurement": "growth of microorganism in presence of additive (turbidity)", "setting": "[3]", "result": "growth of neither organism was impaired"}]}]}
